“And” between values parts separate entries of the source, which are not always exact repeats. Equal entries are not always repeated. Blank lines part the entries; values can stand above or below the molecule they belong to.
Assays:
[1] = instrument: DT, stepped-field
[2] = instrument: DT, stepped-field; remark: listed apart in the source
[3] = instrument: DT, single field, calibrated with Agilent tune mix (Agilent)
[4] = instrument: TW, calibrated with phosphatidylcholines (ESI+) and phosphatidylethanolamines (ESI-)
[5] = [M+H]+; instrument: DT; stepped-field
[6] = [M-H]-; instrument: TW; calibrated with phosphatidylcholines (ESI+) and phosphatidylethanolamines (ESI-)

collision cross section (N2) ([1]; [M+Na]+): 287.7 Å² | collision cross section (N2) ([2]; [M-H]-): 277.8 Å²
Compound: CCCCC/C=C\C/C=C\C/C=C\C/C=C\C/C=C\CCC(=O)O[C@H](COCCCCCCCCCCCCCCCC)COP(=O)(O)OCCN [PE(o38:5)]

collision cross section (N2) ([2]; [M-H]-): 270.6 Å²
Compound: CCCC/C=C\CCCCCCCC(=O)OC[C@H](COP(=O)(O)OC[C@H](N)C(=O)O)OC(=O)CCCCCCC/C=C\CCCCCCCC [PS(16:1/16:1)]

collision cross section (N2) ([2]; [M-H]-): 294.3 Å²
Compound: CCCCCC/C=C\CCCCCCCC(=O)OC[C@H](COP(=O)(O)OC[C@H](N)C(=O)O)OC(=O)CCCCCCCCC/C=C\CCCCCCCCCC [PS(38:2)]

collision cross section (N2) ([2]; [M-H]-): 274 Å² and 273.8 Å² and 274.3 Å²
Compound: CCCCC/C=C\C/C=C\CCCCCCCCCCCC(=O)O[C@H](COC(=O)CCCCCCCCCCC)COP(=O)(O)OC[C@@H](O)CO [PG(16:1/18:1)]

collision cross section (N2) ([3]; [M+H]+): 292.1 Å² | collision cross section (N2) ([3]; [M+Na]+): 296.7 Å² | collision cross section (N2) ([3]; [M-H]-): 285.7 Å² | collision cross section (N2) ([2]; [M-H]-): 296.4 Å² | collision cross section (N2) ([4]; [M-H]-): 285.6 Å²
Compound: CCCCC/C=C\C/C=C\C/C=C\CCCCC(=O)OC[C@H](COP(=O)(O)OC[C@H](N)C(=O)O)OC(=O)CCCCCCCCCCC/C=C\C/C=C\CCCCC [PS(40:5)]

collision cross section (N2) ([3]; [M+H]+): 289.6 Å² | collision cross section (N2) ([3]; [M+Na]+): 293.9 Å² | collision cross section (N2) ([3]; [M-H]-): 284.9 Å² | collision cross section (N2) ([2]; [M-H]-): 295.4 Å² | collision cross section (N2) ([4]; [M-H]-): 284.6 Å²
Compound: CCCCC/C=C\C/C=C\C/C=C\C/C=C\CCCCCC(=O)O[C@H](COC(=O)CCCCCCC/C=C\C/C=C\CCCCC)COP(=O)(O)OC[C@H](N)C(=O)O [PS(40:6)]

collision cross section (N2) ([2]; [M-H]-): 272.6 Å²
Compound: CCCCCCCCC/C=C\CCCCCCCC(=O)O[C@H](COC(=O)CCCCCCCCCCCC)COP(=O)(O)OC[C@H](N)C(=O)O [PS(16:0/16:1)]

collision cross section (N2) [6]: 271.4 Å² | collision cross section (N2) ([2]; [M-H]-): 278.7 Å²
Compound: CCCCC/C=C\C/C=C\CCCCCCCCCC(=O)O[C@H](COC(=O)CCCCCCCCCCCCCC)COP(=O)(O)OC[C@@H](O)CO [PG(35:2)]

collision cross section (N2) ([3]; [M+H]+): 295.2 Å² | collision cross section (N2) ([2]; [M-H]-): 299 Å²
Compound: CCCCC/C=C\C/C=C\CCCCCCCCCCCC(=O)O[C@H](COC(=O)CCCCCCC/C=C\CCCCCCCC)COP(=O)(O)OC[C@H](N)C(=O)O [PS(40:3)]

Second part, the molecule before the results:

Compound: CCCCC/C=C\C/C=C\C/C=C\C/C=C\CCCCCC(=O)O[C@H](COC(=O)CCCCCCC/C=C\C/C=C\CCCCC)COP(=O)(O)OCCN [PE(40:6)]
collision cross section (N2) ([3]; [M+H]+): 284.5 Å² | collision cross section (N2) ([3]; [M+Na]+): 290.3 Å² | collision cross section (N2) ([3]; [M-H]-): 276.2 Å² | collision cross section (N2) ([1]; [M+K]+): 294.7 Å² | collision cross section (N2) ([2]; [M-H]-): 289.4 Å² | collision cross section (N2) ([4]; [M+H]+): 282.9 Å² | collision cross section (N2) ([4]; [M-H]-): 275.4 Å²

Compound: CC/C=C\C/C=C\C/C=C\CCCCCCCC(=O)OC[C@H](COP(=O)([O-])OCC[N+](C)(C)C)OC(=O)CCCCCC/C=C\C/C=C\C/C=C\CCCCC [PC(38:6)]
collision cross section (N2) ([3]; [M+HCOO]-): 291.9 Å² | collision cross section (N2) ([3]; [M+Na]+): 293.3 Å² | collision cross section (N2) ([2]; [M+H]+): 299.9 Å² | collision cross section (N2) ([4]; [M+CH3COO]-): 294 Å² | collision cross section (N2) ([4]; [M+H]+): 286.8 Å²

Compound: CCCCCCCCCCCCCCCCCC(=O)OC[C@@H](O)COP(=O)(O)OC[C@@H](O)CO [LPG(18:0)]
collision cross section (N2) ([2]; [M-H]-): 221.9 Å²

Compound: CCCCCCCC/C=C\CCCCCCCC(=O)OC[C@@H](O)COP(=O)([O-])OCC[N+](C)(C)C [LPC(18:1)]
collision cross section (N2) ([3]; [M+HCOO]-): 238.6 Å² | collision cross section (N2) ([3]; [M+Na]+): 236.1 Å² | collision cross section (N2) ([2]; [M+H]+): 236.2 Å² | collision cross section (N2) ([4]; [M+H]+): 230.8 Å² | collision cross section (N2) [5]: 235.59 Å² and 236.1 Å²

Compound: CCCCCC/C=C\CCCCCCCC(=O)OC[C@@H](O)COP(=O)(O)O [LPA(16:1)]
collision cross section (N2) ([2]; [M-H]-): 191.1 Å²

Compound: CCCC/C=C\CCCCCCCCCC(=O)OC[C@H](COP(=O)(O)OCCN)OC(=O)CCCCCCCCC/C=C\CCCC [PE(16:1/16:1)]
collision cross section (N2) ([2]; [M+H]+): 276.6 Å²

Compound: CCCCC/C=C\C/C=C\CCCCCCCCCCCC(=O)O[C@H](COC(=O)CCCCCCCCCCC)COP(=O)(O)O [PA(16:1/18:1)]
collision cross section (N2) ([2]; [M-H]-): 257 Å²

Compound: CCCCCC/C=C\CCCCCCCC(=O)OC[C@H](COP(=O)(O)OCCN)OC(=O)CCCCCCCCC/C=C\CCCCCCCCCC [PE(38:2)]
collision cross section (N2) ([3]; [M+H]+): 285.1 Å² | collision cross section (N2) ([2]; [M+H]+): 298.6 Å² | collision cross section (N2) ([4]; [M-H]-): 274.1 Å²

Compound: CCCCCCC/C=C\CCCCCCCC(=O)O[C@H](COC(=O)CCCCCCCCCCCC)COP(=O)([O-])OCC[N+](C)(C)C [PC(14:0/16:1)]
collision cross section (N2) ([2]; [M+H]+): 283.6 Å²

Compound: CCCCC/C=C\C/C=C\C/C=C\CCCCC(=O)O[C@H](COCCCCCCCCCCCCCCCC)COP(=O)([O-])OCC[N+](C)(C)C [PC(o34:3)]
collision cross section (N2) ([2]; [M+H]+): 294 Å²

Compound: CCCCC/C=C\C/C=C\C/C=C\C/C=C\CCCC(=O)O[C@H](COCCCCCCCCCCCCCCCC)COP(=O)(O)OCCN [PE(o36:4)]
collision cross section (N2) ([1]; [M+Na]+): 281.6 Å² | collision cross section (N2) ([2]; [M-H]-): 270 Å²

Source: the C3SDB collision cross section collection
